These results are taken from ChEMBL document CHEMBL2073850, “Human organic anion transporters and human organic cation transporters mediate renal transport of prostaglandins” (J Pharmacol Exp Ther, 2002).

What all share (format): functional, cell-based
Holding throughout (design): scale not given: the % may be the effect or the level left

The target in series [1] is T1, OCT1 (Solute carrier family 22 member 1) (Homo sapiens, UniProt O15245).
T1 sequence (O15245 whole entry): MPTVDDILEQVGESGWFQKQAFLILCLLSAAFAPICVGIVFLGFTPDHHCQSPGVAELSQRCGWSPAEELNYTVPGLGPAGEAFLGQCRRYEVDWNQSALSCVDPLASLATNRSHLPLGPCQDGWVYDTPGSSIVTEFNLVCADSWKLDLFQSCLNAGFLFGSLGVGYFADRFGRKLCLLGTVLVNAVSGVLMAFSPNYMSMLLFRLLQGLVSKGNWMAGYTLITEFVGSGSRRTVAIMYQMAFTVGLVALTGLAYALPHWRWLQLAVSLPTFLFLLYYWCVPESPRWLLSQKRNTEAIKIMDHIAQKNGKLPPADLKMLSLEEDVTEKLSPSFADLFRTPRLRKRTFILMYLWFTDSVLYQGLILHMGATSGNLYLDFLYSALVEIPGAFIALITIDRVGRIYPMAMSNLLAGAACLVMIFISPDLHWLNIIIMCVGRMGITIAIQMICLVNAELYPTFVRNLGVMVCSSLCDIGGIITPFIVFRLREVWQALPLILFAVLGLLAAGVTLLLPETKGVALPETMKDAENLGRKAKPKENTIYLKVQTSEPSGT
Briefly: TP_TRANSPORTER: inhibition of TEA uptake (TEA: 5 uM, PGE2: 1000 uM) in OCT1-expressing S2 cells. As to conditions: probe TEA, read-out: Activity.

Series [2] concerns the target T2, OAT2 (Solute carrier family 22 member 7) (Homo sapiens, UniProt Q9Y694).
T2 sequence (Q9Y694 whole entry): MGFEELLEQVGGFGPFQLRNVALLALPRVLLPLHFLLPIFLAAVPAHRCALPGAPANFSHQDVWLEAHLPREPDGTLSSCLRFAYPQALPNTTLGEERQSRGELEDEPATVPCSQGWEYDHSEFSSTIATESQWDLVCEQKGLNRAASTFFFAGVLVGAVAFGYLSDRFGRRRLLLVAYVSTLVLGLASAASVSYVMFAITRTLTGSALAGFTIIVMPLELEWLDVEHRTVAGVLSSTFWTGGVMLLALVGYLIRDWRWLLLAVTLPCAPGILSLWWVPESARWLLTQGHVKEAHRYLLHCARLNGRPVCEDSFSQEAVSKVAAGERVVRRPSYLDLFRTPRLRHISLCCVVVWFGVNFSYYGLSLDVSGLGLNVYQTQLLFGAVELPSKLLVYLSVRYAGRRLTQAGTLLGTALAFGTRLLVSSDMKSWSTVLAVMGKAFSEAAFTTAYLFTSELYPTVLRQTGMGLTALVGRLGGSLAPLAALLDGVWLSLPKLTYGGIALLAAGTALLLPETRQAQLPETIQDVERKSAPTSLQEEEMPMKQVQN
Nature of the series: TP_TRANSPORTER: inhibition of PGF2alpha uptake (PGF2alpha: 0.05 uM, PGE2: 30 uM) in OAT2-expressing S2 cells. Particulars: mouse, probe PGF2alpha, read-out: Activity.

In series [3] the target is T3, Organic anion transporter 3 (Homo sapiens, UniProt Q8TCC7).
T3 sequence (Q8TCC7 whole entry): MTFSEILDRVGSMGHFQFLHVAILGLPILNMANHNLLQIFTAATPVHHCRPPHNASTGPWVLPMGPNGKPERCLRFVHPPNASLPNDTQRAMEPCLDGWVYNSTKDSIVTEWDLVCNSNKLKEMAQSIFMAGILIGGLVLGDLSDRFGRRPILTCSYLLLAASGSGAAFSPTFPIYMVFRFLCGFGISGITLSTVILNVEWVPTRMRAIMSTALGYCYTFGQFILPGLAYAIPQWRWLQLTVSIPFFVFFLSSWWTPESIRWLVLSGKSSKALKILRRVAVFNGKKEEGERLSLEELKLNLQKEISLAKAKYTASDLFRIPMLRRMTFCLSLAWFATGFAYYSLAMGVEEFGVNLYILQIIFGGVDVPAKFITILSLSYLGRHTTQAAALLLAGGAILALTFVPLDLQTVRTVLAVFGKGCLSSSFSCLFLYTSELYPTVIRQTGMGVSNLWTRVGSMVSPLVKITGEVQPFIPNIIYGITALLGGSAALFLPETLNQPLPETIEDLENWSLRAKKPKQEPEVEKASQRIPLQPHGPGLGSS
Nature of the series: TP_TRANSPORTER: inhibition of ES uptake (ES: 0.05 uM, PGE2: 30 uM) in OAT3-expressing S2 cells. As to conditions: s2, 30 µM.

Series [4] addresses T4, OAT4 (Solute carrier family 22 member 11) (Homo sapiens, UniProt Q9NSA0).
T4 sequence (Q9NSA0 whole entry): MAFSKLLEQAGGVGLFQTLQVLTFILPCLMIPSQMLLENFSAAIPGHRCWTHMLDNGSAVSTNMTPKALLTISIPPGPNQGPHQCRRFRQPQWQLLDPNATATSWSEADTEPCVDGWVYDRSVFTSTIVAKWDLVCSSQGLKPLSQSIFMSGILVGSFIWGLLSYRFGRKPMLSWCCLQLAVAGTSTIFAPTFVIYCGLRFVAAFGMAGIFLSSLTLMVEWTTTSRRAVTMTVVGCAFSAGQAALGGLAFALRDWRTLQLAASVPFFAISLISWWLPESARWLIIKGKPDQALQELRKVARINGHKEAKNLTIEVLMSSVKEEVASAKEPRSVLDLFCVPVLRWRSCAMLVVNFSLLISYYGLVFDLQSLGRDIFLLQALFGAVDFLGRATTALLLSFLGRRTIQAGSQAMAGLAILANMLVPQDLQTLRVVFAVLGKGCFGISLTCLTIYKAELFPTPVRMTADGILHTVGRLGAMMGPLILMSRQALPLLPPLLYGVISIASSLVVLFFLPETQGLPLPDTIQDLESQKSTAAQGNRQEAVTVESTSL
Nature of the series: TP_TRANSPORTER: inhibition of ES uptake (ES: 0.05 uM, PGE2: 30 uM) in OAT4-expressing S2 cells. Particulars: probe ES, read-out: Activity.

The target of series [5] is T5, OCT2 (Solute carrier family 22 member 2) (Homo sapiens, UniProt O15244).
T5 sequence (O15244 whole entry): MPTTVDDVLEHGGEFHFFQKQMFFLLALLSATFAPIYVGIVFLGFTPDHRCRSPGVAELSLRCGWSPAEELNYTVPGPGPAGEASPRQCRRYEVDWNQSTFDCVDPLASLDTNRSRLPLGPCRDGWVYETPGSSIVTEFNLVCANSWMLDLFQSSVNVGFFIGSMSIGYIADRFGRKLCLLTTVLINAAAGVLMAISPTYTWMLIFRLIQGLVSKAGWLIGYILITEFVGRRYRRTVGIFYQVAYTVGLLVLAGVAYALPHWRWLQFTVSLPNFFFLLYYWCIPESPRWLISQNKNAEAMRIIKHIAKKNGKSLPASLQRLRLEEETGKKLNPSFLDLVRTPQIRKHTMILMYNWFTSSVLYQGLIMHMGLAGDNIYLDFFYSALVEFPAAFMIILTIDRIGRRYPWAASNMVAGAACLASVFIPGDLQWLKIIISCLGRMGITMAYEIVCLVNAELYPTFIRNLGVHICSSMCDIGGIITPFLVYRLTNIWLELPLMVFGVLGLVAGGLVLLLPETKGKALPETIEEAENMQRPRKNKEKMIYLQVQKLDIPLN
Nature of the series: TP_TRANSPORTER: inhibition of TEA uptake (TEA: 5 uM, PGE2: 1000 uM) in OCT2-expressing S2 cells. As to conditions: mouse, probe TEA, read-out: Activity.

Series [6] deals with T6, OAT3 (Organic anion transporter 3) (Homo sapiens, UniProt Q8TCC7).
T6 sequence (Q8TCC7 whole entry): T3 sequence (Q8TCC7 whole entry)
Briefly: TP_TRANSPORTER: inhibition of ES uptake (ES: 0.05 uM, PGF2alpha: 30 uM) in OAT3-expressing S2 cells. As to conditions: probe ES, read-out: Activity.

The target in series [7] is T7, Solute carrier family 22 member 1 (Homo sapiens, UniProt O15245).
T7 sequence (O15245 whole entry): T1 sequence (O15245 whole entry)
Briefly: TP_TRANSPORTER: inhibition of TEA uptake (TEA: 5 uM, PGF2alpha: 1000 uM) in OCT1-expressing S2 cells. As to conditions: mouse, s2, 1000 µM.

In series [8] the target is T5, OCT2 (Solute carrier family 22 member 2). Briefly: TP_TRANSPORTER: inhibition of TEA uptake (TEA: 5 uM, PGF2alpha: 1000 uM) in OCT2-expressing S2 cells. Particulars: mouse, probe TEA, read-out: Activity.
Series [9] deals with T8, OAT1 (Solute carrier family 22 member 6) (Homo sapiens, UniProt Q4U2R8).
T8 sequence (Q4U2R8 whole entry): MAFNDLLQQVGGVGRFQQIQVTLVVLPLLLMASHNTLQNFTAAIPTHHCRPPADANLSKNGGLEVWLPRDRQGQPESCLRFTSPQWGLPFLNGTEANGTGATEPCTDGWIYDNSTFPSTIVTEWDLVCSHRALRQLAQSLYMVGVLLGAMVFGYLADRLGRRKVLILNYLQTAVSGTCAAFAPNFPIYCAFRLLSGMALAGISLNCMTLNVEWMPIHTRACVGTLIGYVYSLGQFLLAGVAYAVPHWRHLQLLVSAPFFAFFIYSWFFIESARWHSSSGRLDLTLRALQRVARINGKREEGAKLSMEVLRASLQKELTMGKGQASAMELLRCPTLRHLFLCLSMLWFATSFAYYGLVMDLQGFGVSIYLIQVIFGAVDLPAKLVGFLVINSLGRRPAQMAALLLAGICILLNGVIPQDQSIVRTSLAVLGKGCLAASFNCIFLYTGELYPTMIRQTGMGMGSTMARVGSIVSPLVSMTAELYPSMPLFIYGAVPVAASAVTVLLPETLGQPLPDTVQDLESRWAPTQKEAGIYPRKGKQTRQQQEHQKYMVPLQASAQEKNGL
Briefly: TP_TRANSPORTER: inhibition of PAH uptake (PAH: 5 uM, PGF2alpha: 1000 uM) in OAT1-expressing S2 cells. Particulars: mouse, probe PAH, read-out: Activity.

In series [10] the target is T4, OAT4 (Solute carrier family 22 member 11). Briefly: TP_TRANSPORTER: inhibition of ES uptake (ES: 0.05 uM, PGF2alpha: 30 uM) in OAT4-expressing S2 cells. As to conditions: mouse, probe ES, read-out: Activity.

SMILES strings stand for the structures.

In the case of `CCCCC[C@H](O)/C=C/[C@H]1[C@H](O)CC(=O)[C@@H]1C/C=C\CCCC(=O)O` [DINOPROSTONE], the activity at 1000 µM in series [1] worked out at 31.4%; in [5], 75.6%. The activity at 30 µM in series [2] came to 21.2%; in [4], 57%. The molecule further registered an Activity in [3] of 21.8%.

Regarding `CCCCC[C@H](O)/C=C/[C@@H]1[C@@H](C/C=C\CCCC(=O)O)[C@@H](O)C[C@H]1O` [DINOPROST], the activity at 30 µM in [6] was determined as 26.8%; in series [10], 40.8%. This molecule also gave an Activity in series [7] of 68.9%. Further, the activity at 1000 µM was found to be 70.7% in [8] and 17.7% in series [9].
